SMILES strings stand for the structures. Entries after “also recorded” stand apart in the source; their conditions may differ.

This test concerns α-tubulin deacetylation. Kind of test: acetylated α-tubulin in cells (AcTubulin cytoblot, immunofluorescence, Western blot). The test is classed as cell-based, human. To be noted: for effect on tubulin deacetylation / α-tubulin acetylation in cells: A549 (also BS-C-1) cells, tubacin/JCWII114, niltubacin/JCWII153 2 μM, TSA 100 nM-4 μM, library ~2-5 μM, 18 h. How it is done: A549 cells were seeded at a density of 4,000 cells/50 μl in DMEM+ in white tissue culture-treated 384-well plates (Nalge Nunc) using a Multidrop 384 liquid dispenser (Labsystems). Library small molecules were pinned twice (100-150 nl/pin) from ˜1 mM stock solutions (DMSO) and incubated for 18 hours. For the ITSA1+AcTubulin assay, ITSA1 (50 μM) was added four hours after pin-transfer of library molecules. Media was aspirated with a 16-channel wand. For the acetylated α-tubulin cytoblot (AcTubulin), 40 μl/well of fixation solution (3.7% formaldehyde (1:10 from 37% stock) in Tris-buffered saline (TBS, 0.15 M NaCl, 0.02 M Tris-Cl, pH 7.4) was added and plates incubated for twenty minutes at room temperature. After aspiration, 30 μl 100% methanol (−20° C.) was added and incubated for five minutes at room temperature. After aspirating and washing three times with 90 μl of antibody dilution buffer (ADB, TBS/2% bovine serum albumin, 0.1% TritonX-100) the wells were blocked for twenty minutes in ADB. After aspirating, 20 μl/well of ADB containing anti-acetylated α-tubulin antibody (mouse; 1:1000) and anti-mouse IgG horseradish peroxidase (HRP)-conjugated antibody (1:750) was added and incubated overnight (4° C.). For the anti-acetyl lysine cytoblot (AcLysine), 40 μl/well of fixation solution (95% ethanol/5% acetic acid, −20° C.) was added and plates incubated for five minutes at room temperature. Wells were aspirated, washed, and blocked in ADB as for the AcTubulin protocol. After aspirating, 20 μl/well of ADB containing anti-acetylated lysine (rabbit; 1:375) and anti-rabbit IgG-HRP conjugated antibody (1:750) was added and incubated overnight (4° C.). For the anti-acetylated histone H3 (AcHistH3) and anti-acetylated histone H4 (AcHistH4) cytoblots, cells were fixed, washed, and blocked in ADB as for the AcLysine cytoblot. After aspirating, 20 μl/well of ADB containing anti-acetylated histone H3 antibody (rabbit, 1:500) or anti-acetylated histone H4 antibody (rabbit, 1:500) was added and incubated for two hours at room temperature. Wells were aspirated and washed twice with 80 μl of ADB. After aspirating, 20 μl/well of ADB containing anti-rabbit IgG-HRP conjugated antibody (1:1000) was added and incubated for two hours (room temperature). For the AcTubulin and AcLysine assays, plates were washed three times with TBS before adding 20 μl/well of enhanced chemiluminescent (ECL) mixture. For the AcHistH3 and AcHistH4 assays, plates were washed three times with 80 μl TBS with 1% Triton X-100 and once with 80 μl TBS before adding 20 μl/well of ECL mixture. Plates were read on an Analyst plate reader (LJL Biosystems) with an integration time of 0.1 seconds.
1,3-dioxanes from single polystyrene macrobeads were prepared as 1-2 mM stock solutions in DMSO as described [Hubbert, C., Guardiola, A., Shao, R., Kawaguchi, Y., Ito, A., Nixon, A., Yoshida, M., Wang, X. F., and Yao, T. P. (2002). HDAC6 is a microtubule-associated deacetylase. Nature 417, 455-458]. Bead decoding and structure determination were as described [See for example, Hubbert, C., Guardiola, A., Shao, R., Kawaguchi, Y., Ito, A., Nixon, A., Yoshida, M., Wang, X. F., and Yao, T. P. (2002). HDAC6 is a microtubule-associated deacetylase. Nature 417, 455-458; and Piperno, G., LeDizet, M., and Chang, X. J. (1987). Microtubules containing acetylated alpha-tubulin in mammalian cells in culture. J. Cell Biol. 104, 289-302]. Small molecules (˜2-5 μM) of interest were retested using a sample from the plate of stock solutions by fluorescence microscopy and comparison to the effects of trichostatin (300 nM to 1 μM).
A549 cells were seeded at a density of 50,000/200 μl in DMEM+ on the surface of glass coverslips on top of Parafilm in a 10 cm dish and allowed to attach overnight. For detection of acetylated α-tubulin, cells were permeabilized and fixed with 100 mM K-PIPES, pH 6.8, 10 mM EGTA, 1 mM MgCl2, 0.2% triton X-100, 0.2% glutaraldehyde for fifteen minutes. […]
For orientation: Immunoblotting shows a protein as a band on a membrane.

As for `CC(/C=C/C(=O)NO)=C\[C@@H](C)C(=O)c1ccc(N(C)C)cc1` [TSA, trichostatin A, reference compound], the “effect on tubulin deacetylation / α-tubulin acetylation in cells” value was “an inhibitor of both α-tubulin and histone deacetylation; also recorded: Increased α-tubulin acetylation upon TSA (4 μM) treatment (24 h)”.
As for `O=C(CCCCCCC(=O)Nc1ccc([C@@H]2OC(c3ccc(CO)cc3)C[C@H](CSc3nc(-c4ccccc4)c(-c4ccccc4)o3)O2)cc1)NO` (some centres unmarked) [tubacin], the “effect on tubulin deacetylation / α-tubulin acetylation in cells” value is “Increased acetylated α-tubulin induced by tubacin; also recorded: Reversibility of tubacin-induced (2 μM; 5 h) α-tubulin acetylation; also recorded: strongly increased α-tubulin acetylation levels; also recorded: potent (FIG. 41E), selective (FIG. 41F; FIG. 46A), and reversible (FIG. 46B) inhibitor of α-tubulin deacetylation; also recorded: always increased α-tubulin acetylation levels”. In addition, under “listed as 415 N3”, the “effect on tubulin deacetylation / α-tubulin acetylation in cells” value is “strongly increased α-tubulin acetylation”. Moreover, the “effect on tubulin deacetylation / α-tubulin acetylation in cells” value (listed as JCWII114) is “potently and selectively inhibited tubulin deacetylation”. Also, the “concentration at which α-tubulin acetylation is increased” value (A549 cells, 4 h, data not shown) is given as ≥ 125 nM.

The values are drawn from US8178579B2, “Dioxanes and uses thereof” (President and Fellows of Harvard College, priority 2001, dated 2012).
